We go through 5 compounds from patent publication US9913827B2, “Bendamustine derivatives and methods of using same” (IGNYTA, INC., priority 2012, dated 2018).

The structures appear in SMILES notation. Read-outs that look alike come from different tables or passages of the source. Marks after values point to notes of the source that are not given here.

The nature of series [1]: Tumor efficacy PK group, H-460 tumor-bearing mice: tumor and plasma levels. The conditions noted are these: for Ester level in Plasma at 1 hour / Ester level in Tumor at 1 hour: 80 mg/kg i.v. As for the experimental part:
The formulations were administrated as 100 μL dose volume through tail vein injection within 30 minutes after compounds were formulated. All the mice were weighed and tumors measured twice weekly. At the last day of the study, plasma, tumor, lung, liver, spleen, left kidney, brain and legs were collected and quickly frozen for further analysis two hours post-dosing.
(§1) A portion of the tumor bearing mice were dosed as a satellite PK group. Each group was dosed as described for the tumor efficacy group, however the PK group was euthanized and tissue samples collected at 1, 3 and 6 hours post dosing on day 2. The tissues collected included blood, lung, liver and tumor. Samples were analyzed for bendamustine HCl and the corresponding ester analogue as described in the LC-MS protocol section.
(§2) Plasma and other tissues were prepared for high performance liquid chromatography (HPLC)/mass spectrometric analysis according to a standard protocol following protein precipitation with acetonitrile containing an internal standard. The samples were then analyzed for both bendamustine HCl and bendamustine esters of the invention and alprenolol (internal standard) via HPLC coupled with tandem mass spectrometry. Tissue samples were homogenized in sodium phosphate buffer and the value obtained from the assay was multiplied by 3 to correct for dilution during processing.

The test system of series [2] is H460 tumor cells (large cell lung cancer). As to the kind of experiment: Nude mouse H460 tumor efficacy study. Type of series: in vivo, nu/nu mouse. The protocol: 2×10^6 cells/100 ul in the mix of medium and Matrigel (1:1 ratio) solution was injected into right back flank of each nu/nu mouse. The implanted mice were monitored and measured with electric calipers. The study started when the tumors reached ˜150 mm^3 in size. The mice were measured and randomized into 9 groups with 10 mice in each group per the below table: […]

In another series the test system is MDA-MB-231 xenografts. As to the kind of experiment: Nude mouse MDA-MB-231 tumor efficacy study. The class given is in vivo, athymic nude mice. The protocol: Charles River Labs athymic nude mice were subcutaneous injected with 5×10^6 human tumor cells in matrigel. The tumor volume was monitored until an average tumor size of ˜150 mm^3 was obtained in the mouse population The mice were then randomized in to one of the nine treatment groups (summarized in table below) with a population of 10 mice per group (n=10). Each of the formulations was dosed at 100 μL fixed volume via tail vein injection on day 1 and day 2 of the study. Mice were weighed and the tumor volume measured every 3-4 days for 3 weeks of the study duration.

Series [3] can be described thus: Tumor efficacy PK group, MB-231 tumor-bearing mice: tumor and plasma levels. The conditions noted are these: for Ester level in Plasma at 1 hour / Ester level in Tumor at 1 hour: 80 mg/kg i.v. The protocol: as §1, §2
Series [4] is described as follows: Rat plasma pharmacokinetics at 3 mg-eq/kg i.v. As to conditions: solution formulation 3 mg-eq/kg i.v.
Another series concerns MB-231 (HBC). As to the kind of experiment: MTS cell assay (cell proliferation), MB-231. Type of series: cell-based. As to conditions: Homo sapiens, 72 hours. The protocol: Charles River Labs athymic nude mice bearing MDA-MB-231 breast carcinoma cell line subcutaneous xenografts (5×10^6 cells in matrigel) were sacrificed to make a tumor isolate. Using sterile instruments and working aseptically, the tumors were removed from the euthanized animal. The tumor was placed in a 50 mL sterile conical tube and 5 mL of trypsin was added. The tumor was cut into small pieces and incubated at 37° C. for 30 minutes. After incubation, a cell strainer was placed on a second, sterile, 50 mL conical tube and the contents of the first tube were placed in the cell strainer. The tissue was forced through the filter using the flat end of a syringe plunger. The cell strainer was washed with 5 mLs of media containing FBS. The cells were spun down and the supernatant was discarded. The cells were resuspended in 20 mLs of complete media containing P/S and placed in a 75 cm flask.
(§3) Human carcinoma cells (2,000 cells/well) were incubated with the desired concentration of the test molecule (0-200 μM) for 72 hours. The cells were then incubated with MTS solution (Promega) for 1-2 hours, and the compounds effects on cell proliferation was determined by measuring the absorbance at 490 nm. Cell growth was expressed as a percent of the appropriate control (placebo). […] All data reported was the mean±SE of three independent experiments.

Another series deals with H-460 (NSCLC). The experiment in a line: MTS cell assay (cell proliferation), H-460. Type of series: cell-based. As to conditions: Homo sapiens, NCI-H460, 72 hours. As for the experimental part:
as §3
(Formazan colour is commonly taken as a measure of viable cells.)

In series [5] the test system is RPMI 8226 (Human Plasmacytoma, Myeloma B Cells). Type of series: in vivo, CB.17 SCID female mice. As to conditions: day 46. The protocol: RPMI 8226 (Human Plasmacytoma, Myeloma B Cells) ATCC #CCL-155;
80 CB.17 SCID female mice, 4-6 weeks old, 16-20 grams, obtained from Harlan animal breeding center
Cells (originated from ATCC) were cultured on RPMI medium. Cell suspension was centrifuged and resuspended in 50% Matrigel/HBSS to a final concentration of 7×10^7 cells/ml. The suspension was implanted s.c. in the right flank of the anesthetized mouse at a volume of 100 μl.
Seven ml saline were added to the original vial containing 3.5 mg powder resulting in 0.5 mg/ml. Three ml of this solution were added to 27 ml saline to receive 0.05 mg/ml concentration.
bendamustine preparation: 13.5 mg was dissolved in 3.6 ml of 1:1 mixture of 0.9% saline/5% mannitol just before the treatment. 1.05 ml of this solution was added to 0.95 ml diluent for 2 mg/ml solution.
1.05 ml of this solution was added to 0.95 ml diluent for 2 mg/ml solution.
On day 21, mice were sorted by the optimal average tumor volume (˜150 mm^3) and were allocated into eight groups of 9 mice each.
[formula] The analysis of weight gain and tumor volume progression was made using one-way ANOVA followed by Tukey post-hoc comparisons. Results

[6] abbreviates: HSA nanoparticle, 80 mg/kg i.v.
The mark [7] stands for this setting: HSA nanoparticle, 80 mg/kg i.v. day 1 and 2.
Setting [8] is: Solution, 80 mg/kg i.v. day 1 and 2.
Setting [9] is: Solution, 37.5 mg/kg i.v. day 1 and 2.

For `CCCCCCCCCCCCCCOC(=O)CCCc1nc2cc(N(CCCl)CCCl)ccc2n1C` [bendamustine C14 ester, 4-{5-[Bis-(chloroethyl)-amino]-1-methyl-1H-benzimidazol-2-yl}butyric acid tetradecyl ester], the “Ester level in Plasma at 1 hour” value in series [1] (HSA nanoparticle) amounted to 3648 ng/mL; in series [1] (Solution) it was 32233 ng/mL; in series [3] (HSA nanoparticle), 5727 ng/mL; in series [3] (Solution), 14 ng/mL. The “Ester level in Tumor at 1 hour” value in series [1] (HSA nanoparticle) came out at 4570 ng/mL; in series [1] (Solution), 8570 ng/mL; in series [3] (HSA nanoparticle), 10430 ng/mL; in series [3] (Solution) it was 396 ng/mL. Moreover, the “% Morbidity” value in series [2] (setting [6]) came out at 10%; in series [2] (Solution, 80 mg/kg i.v.), 100%; in the series with MDA-MB-231 xenografts (setting [7]), 60%; in the series with MDA-MB-231 xenografts (setting [8]) it was 40%. Besides, the “% Mortality” value in series [2] (setting [6]) came out at 0%; in series [2] (Solution, 80 mg/kg i.v.), 40%; with MDA-MB-231 xenografts (setting [7]), 0%; in the series with MDA-MB-231 xenografts (setting [8]), 0%. The “% Tumor Inh.” value in series [2] (setting [6]) is listed as 40%; in series [2] (Solution, 80 mg/kg i.v.), 81%; with MDA-MB-231 xenografts (setting [8]) it was 90%.

In the case of `Cn1c(CCCC(=O)OC2CCCCC2)nc2cc(N(CCCl)CCCl)ccc21` [Cy-hexyl bendamustine ester, 4-{5-[Bis-(chloroethyl)-amino]-1-methyl-1H-benzimidazol-2-yl}butyric acid cyclohexyl ester], the “Plasma levels of the dosed Ester” value in series [4] is listed as “All < MQL”.

As a reminder, the IC50 is the midpoint of a concentration-inhibition curve. With `CCCCCCCCOC(=O)CCCc1nc2cc(N(CCCl)CCCl)ccc2n1C` [bendamustine C8 ester, 4-{5-[Bis-(chloroethyl)-amino]-1-methyl-1H-benzimidazol-2-yl}butyric aid octyl ester], the IC50 in the series on MB-231 (HBC) turned out to be 53.1 µM; in the series with H-460 (NSCLC), 49 µM.

As for `Cn1c(CCCC(=O)O)nc2cc(N(CCCl)CCCl)ccc21` [Bendamustine, 4-[5-[bis(2-chloroethyl)amino]-1-methylbenzimidazol-2-yl]butanoic acid], in series [1] (Solution, 37.5 mg/kg i.v.), the “BM1 level in Plasma at 1 hour” value worked out at 1550 ng/mL and the “BM1 level in Tumor at 1 hour” value was 1472 ng/mL. Besides, in series [2] (Solution, 37.5 mg/kg i.v.), the “% Morbidity” value is recorded as 0/0% and the “% Mortality” value is given as 0/0%. In the series on MDA-MB-231 xenografts (setting [9]), the “% Morbidity” value worked out at 10%, the “% Mortality” value was 0% and the “% Tumor Inh.” value turned out to be 77%. In addition, in series [5] (20 mg/kg iv on days 1 and 2), the “% TGI” value is given as 66*** %; the “No. of CR” value is 0; the “No. of PR” value is 0; the “Δ mean tumor volume, (mean ± se)” value is listed as 205 ± 44. Also, in series [5] (37.5 mg/kg iv on days 1 and 2), the “No. of CR” value is 0; the “No. of PR” value is given as 0; the “Δ mean tumor volume, (mean ± se)” value worked out at 113 ± 23. Moreover, the “% TGI” value in series [5] (37.5 mg/kg iv on days 1 and 2, 37.5 mg/kg) was determined as 81%. In series [3] (Solution, 37.5 mg/kg i.v.), the “BM1 level in Plasma at 1 hour” value was determined as 906 ng/mL and the “BM1 level in Tumor at 1 hour” value stood at 558 ng/mL.

For the compound `CCCCCC(CCCC)OC(=O)CCCc1nc2cc(N(CCCl)CCCl)ccc2n1C` (stereo not shown) [5-decanyl ester, 4-{5-[Bis-(chloroethyl)-amino]-1-methyl-1H-benzimidazol-2-yl}butyric acid 5-decyl ester], in series [4], the “Plasma levels of the dosed Ester” value is “All < MQL”.
